Measured values published in patent publication US11136295B2, “D-amphetamine compounds, compositions, and processes for making and using the same” (KemPharm, Inc., priority 2018, dated 2021).

Assays:
[1] = Oral pharmacokinetic study in rats (plasma amphetamine by LC-MS/MS); type: in vivo; conditions: d-amphetamine in plasma; rat, oral gavage, 5.6 μmol/kg; 6-hour time course
Method: Conjugates of d-amphetamine, and d-amphetamine sulfate or lisdexamfetamine dimesylate comparator compound were dissolved in an appropriate vehicle and administered in rats via oral gavage at doses of 5.6 μmol/kg. Whole blood samples were collected via retro-orbital bleeding at 0.25, 0.5, 1, 2, 4, and optionally at 3 and 6 hours postdose. Blood samples were centrifuged and the resulting plasma samples were collected for analysis of amphetamine concentrations by LC-MS/MS.

[2] = Intravenous pharmacokinetic study in rats (tail vein; plasma d-amphetamine by LC-MS/MS); type: in vivo, rat; conditions: for AUC0-2 hr / Cmax / Tmax: d-amphetamine in plasma, rat, intravenous (tail vein), 5.6 μmol/kg, sampled to 2 hours
Method: Conjugates of d-amphetamine, and d-amphetamine sulfate or lisdexamfetamine dimesylate comparator compound were dissolved in an appropriate vehicle and administered in rats at doses of 5.6 μmol/kg by injecting the solution into the tail vein. Whole blood samples were collected via retro-orbital bleeding at 5 minutes and at 0.25, 0.5, 1 and 2 hours postdose. Blood samples were centrifuged and the resulting plasma samples were collected for analysis of […] concentrations by LC-MS/MS.

[3] = Intranasal pharmacokinetic study in rats (plasma amphetamine by LC-MS/MS); type: in vivo; conditions: d-amphetamine in plasma, rat, 4-hour time course

d-amphetamine-CO2CH2-isonicotinate ethyl ester [AMP-CO2CH2-isonicotinate(Et)]
AUC0-4 hr [1]: 75.4 ng·h/mL
AUC0-6 hr [1]: 106.6 ng·h/mL
Cmax [1]: 26.0 ng/mL
Tmax [1]: 90 min
AUC0-2 hr [2]: 26.5 ng·h/mL
Cmax [2]: 18.8 ng/mL
Tmax [2]: 43.2 min
AUC0-1 hr [3]: 8.6 ng·h/mL
AUC0-4 hr [3]: 32.6 ng·h/mL
Cmax [3]: 11.1 ng/mL
Tmax [3]: 37.8 min

CC(C)[C@H](NC(=O)c1cc[n+](COC(=O)N[C@@H](C)Cc2ccccc2)cc1)C(N)=O [AMP-CO2CH2-isonicotinoyl-Val-NH2, d-amphetamine-CO2CH2-isonicotinoyl-valinamide]
exposure to d-amphetamine after intravenous administration compared to the nicotinoyl analogue ([2]; intravenous, compared to AMP-CO2CH2-nicotinoyl-Val-NH2, FIG. 32): decreases exposure to d-amphetamine

CCOC(=O)C(C)NC(=O)c1cc[n+](COC(=O)N[C@@H](C)Cc2ccccc2)cc1 (stereo partly drawn) [AMP-CO2CH2-isonicotinoyl-Ala-OEt, d-amphetamine-CO2CH2-isonicotinoyl-alanine ethyl ester]
AUC0-4 hr [1]: 72.8 ng·h/mL
AUC0-6 hr [1]: 105.7 ng·h/mL
Cmax [1]: 28.5 ng/mL
Tmax [1]: 120 min
AUC0-2 hr [2]: 32.4 ng·h/mL
Cmax [2]: 24.7 ng/mL
Tmax [2]: 31.2 min

C[C@@H](Cc1ccccc1)NC(=O)OC[n+]1ccc(C(=O)O)cc1 [AMP-CO2CH2-isonicotinate, d-amphetamine-CO2CH2-isonicotinate]
melting point: 168 to 170 °C
